Measurements published in patent US9073893B2, “3-Oxo-2,3-dihydro-1H-indazole-4-carboxamide derivatives as PARP-1 inhibitors” (priority 2011, dated 2015).

Assays:
[1] = molecular target: PARP-2 (Homo sapiens (Human), UniProt Q9UGN5); conditions: probe P1; for DC50: read-out: PARP-2 (DC50 μM); for Kd: read-out: PARP-2 (Kd μM)
Protocol: (§1) Affinity evaluation of the tested compounds and their selectivity with respect to the different PARP isoforms of interest was assessed in a displacement assay.
(§2) a) providing a reaction mixture containing:
(§3) the PARP protein isoform under investigation,
a compound of formula (IP):
(§4) wherein R11 is hydrogen or a methyl group, B is (CH2)n—NH group wherein n is 2 to 6; m is 0 or 1 and X^− is a counterion, and
serial dilutions of the test compound;
(§5) b) comparing the polarization signal generated in the absence of the test compound with the one generated in the presence of different concentrations of the test compound, and
(§6) c) evaluating the ability of the test compound to displace the compound of formula (IP) as defined above indicated from a decreased fluorescence polarization level.
(§7) The 5H-phenanthridin-6-one-derived probe (IP) was selected for its capability of binding to the PARP proteins, both encompassing full-length native proteins and fragment thereof.
(§8) The polarization signal can be measured, e.g., by a plate reader such as the Saphire2 (Tecan). Data analysis was performed, e.g., by using the Dynafit software. Displacement data were also fitted, e.g., by using Excel spreadsheet (Microsoft Inc. Seattle, USA) to a four parameter logistic model (4PL), or Hill-Slope model. The assay was used to test compounds of the present invention. […] Specific probes of formula (IP) used in the assay are: • P1. 9-Dimethylamino-11,11-dimethyl-1-(3-{methyl-[(6-oxo-5,6-dihydro-phenanthridin-2-ylcarbamoyl)-methyl]-carbamoyl}-propyl)-2,3,4,11-tetrahydro-naphtho[2,3-g]quinolinium trifluoroacetate; • P2. 9-Dimethylamino-11,11-dimethyl-1-[3-(3-{[(6-oxo-5,6-dihydro-phenanthridin-2-ylcarbamoyl)-methyl]-amino}-propylcarbamoyl)-propyl]-2,3,4,11-tetrahydro-naphtho[2,3-g]quinolinium trifluoroacetate; • P3. 9-Dimethylamino-11,11-dimethyl-1-[3-(6-{[(6-oxo-5,6-dihydro-phenanthridin-2-ylcarbamoyl)-methyl]-amino}-hexylcarbamoyl)-propyl]-2,3,4,11-tetrahydro-naphtho[2,3-g]quinolinium trifluoroacetate.

[2] = molecular target: PARP-3 (Homo sapiens (Human), UniProt Q9Y6F1); conditions: probe P1; for DC50: read-out: PARP-3 (DC50 μM); for Kd: read-out: PARP-3 (Kd μM)
Protocol: as §1, §2, §3
a compound of formula (IP):
as §4
serial dilutions of the test compound;
as §5, §6, §7, §8

[3] = molecular target: PARP-1 (Homo sapiens (Human), UniProt P09874); conditions: for DC50: read-out: PARP-1 (DC50 μM), probe P1, <0.25 = assay sensitivity limit; for Kd: read-out: PARP-1 (Kd μM), probe P3, <0.01 = assay sensitivity limit
Chain of PARP-1 (P09874 whole entry): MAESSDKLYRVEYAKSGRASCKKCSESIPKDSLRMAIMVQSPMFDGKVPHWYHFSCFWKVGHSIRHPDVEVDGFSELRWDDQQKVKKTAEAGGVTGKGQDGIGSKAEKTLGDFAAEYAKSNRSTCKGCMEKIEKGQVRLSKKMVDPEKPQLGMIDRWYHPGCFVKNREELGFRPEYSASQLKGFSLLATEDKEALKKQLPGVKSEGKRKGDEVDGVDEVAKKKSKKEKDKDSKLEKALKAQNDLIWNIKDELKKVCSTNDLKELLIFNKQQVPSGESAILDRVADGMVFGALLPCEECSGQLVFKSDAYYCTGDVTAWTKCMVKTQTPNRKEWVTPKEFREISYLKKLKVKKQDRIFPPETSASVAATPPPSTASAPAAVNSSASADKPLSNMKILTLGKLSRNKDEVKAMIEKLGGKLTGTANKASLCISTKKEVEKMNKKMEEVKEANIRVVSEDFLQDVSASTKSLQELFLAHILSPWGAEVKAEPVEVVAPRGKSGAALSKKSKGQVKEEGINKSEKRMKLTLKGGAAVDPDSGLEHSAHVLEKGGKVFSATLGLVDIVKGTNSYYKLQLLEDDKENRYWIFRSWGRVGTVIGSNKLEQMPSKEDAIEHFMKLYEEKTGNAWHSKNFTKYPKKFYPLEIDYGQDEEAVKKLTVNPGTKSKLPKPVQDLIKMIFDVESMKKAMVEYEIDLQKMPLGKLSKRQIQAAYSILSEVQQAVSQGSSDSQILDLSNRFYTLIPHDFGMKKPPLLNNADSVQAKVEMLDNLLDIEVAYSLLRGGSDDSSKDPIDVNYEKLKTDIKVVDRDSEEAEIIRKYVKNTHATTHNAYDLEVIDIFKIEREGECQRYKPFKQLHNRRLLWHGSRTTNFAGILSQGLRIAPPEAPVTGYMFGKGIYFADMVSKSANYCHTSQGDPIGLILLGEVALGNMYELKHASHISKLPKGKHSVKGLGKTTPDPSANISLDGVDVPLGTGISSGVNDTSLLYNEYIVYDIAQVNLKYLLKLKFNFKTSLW
Protocol: as §1, §2, §3
a compound of formula (IP):
as §4
serial dilutions of the test compound;
as §5, §6, §7, §8

[4] = tested on: hydrogen peroxide induced PAR formation in HeLa cells; experiment: cells; conditions: Homo sapiens, read-out: PAR assay (IC50 μM)
Protocol: Cellular activity of PARP-1 inhibitors was assessed by measuring the inhibition of the hydrogen peroxide induced PAR formation in HeLa cells (ECACC). Cellular PAR levels were measured by immunocytochemistry, and quantified using an ArrayScan vTi instrument (Cellomics Thermo Scientific).
Studies were performed as follows: 6000 cells/well were seeded in 96 well plates (Perkin Elmer) in MEM/10% FCS and incubated for 24 hours at 37° C., 5% carbon dioxide. Test compounds were then added at the required concentration for 30 minutes. DNA damage was then induced adding hydrogen peroxide at the concentration of 0.1 mM for 15 minutes. Concentration curves were prepared in MEM/10% FCS from compound stocks in DMSO, and final DMSO concentration was 0.002% (v/v). Duplicate wells for each concentration point were prepared with a typical highest compound concentration of 20 μM and serial dilution 1:3. Plates were dried and fixed adding cold methanol-acetone (70:30) solution for 15 minutes at room temperature, fixing solution was aspired and wells were air dried for 5 minutes and then dehydrated in PBS. Non-specific binding sites were blocked by incubating wells for 30 minutes in PBS containing 5% (w/v) FBS 0.05% tween20. Wells were then incubated for 1 hour at room temperature in PBS containing anti PAR mouse monoclonal antibody (Anti-PAR, Mouse mAb 10H, Tulip Cat N° 1020) diluted 1:200 in blocking solution. After 3 washes in PBS, wells incubated in PBS (w/v) 5% FBS 0.05% Tween20 containing 2 μg/mL Cy2-conjugated Goat anti mouse secondary antibody (Amersham Pharmacia Biotech cat. N° PA 42002) (Absorption maximum 489 nm fluorescence maximum 506 nm) and 1 μg/mL DAPI (Absorption maximum 359 nm fluorescence maximum 461 nm) (4′,6-diamidino-2-phenyindole dilactate) (Sigma cat. N° D9564), a high sensitivity dye for nucleic acid staining. After washing further 3 times in PBS, cellular PAR immunoreactivity was assessed using the ArrayScan vTi instrument, with a Zeiss 10×0.5 N.A. objective, and applying the Cytotoxicity. V3 algorithm (Cellomics/Thermo Fisher) with a XF100 filter. At least 10 fields, corresponding to at least 900 cells, were read for each well.
X is the logarithm of concentration, IC50 is the response; IC50 starts at bottom and goes to top with a sigmoid shape.

[5] = Pharmacokinetics and oral bioavailability in the mouse; type: in vivo; conditions: for clearance / Vd / AUC / half-life: male, Balb, Nu/Nu, plasma; for clearance / Vd: IV bolus 10 mg/kg; for clearance / Vd / AUC / half-life / C-max (oral): mean; for clearance: read-out: CL (IV bolus); for Vd: read-out: Vdss (IV bolus); for AUC / half-life / C-max (oral): oral 10 mg/kg; for half-life: read-out: T½ (oral) (converted); for F on AUC: oral vs IV dose-normalized AUC, 10 mg/kg
Protocol: A single administration at the dose of 10 mg/kg was given and three male animals for each route were used. […] After capping and vortex mixing, the plate was centrifuged for 15 minutes at 4000 rpm. The supernatant was considered as final extract and injected onto the LC-MS-MS system (UPLC system: Waters Acquity using BEH C18 50*2.1 mm 1.7 μm analytical column; MS instrument: Waters TQD equipped with Electro-Spray source operating in positive ion mode). Lower limit of quantification is 5.0 ng/mL, upper limit of quantification is 5000 ng/mL. Non-compartmental method (linear trapezoidal rule and linear regression analysis of natural log-transformed plasma concentrations vs. time data) was used. Absolute bioavailability (F) was calculated from the ratio of average oral to IV (intravenous) dose-normalized plasma AUC (area under curve) values.

[6] = tested on: Capan-1 human pancreatic cancer tumors
Protocol: Fragments of Capan-1 human pancreatic cancer tumors were implanted subcutaneously. […] Each group included seven animals. The treatment started one day after randomization. Compounds of formula (I) were administered by oral route as a methocel suspension. Tumor dimension was measured regularly by calipers during the experiments and tumor mass was calculated as described in Simeoni M. et al., Cancer Res 2004, 64, 1094-1101.
Temozolomide was administered by oral route at the dose of 50 mg/kg on days 3, 4, 5, 6, 7 and 8. Tumor growth and body weight were measured every 3 days. Tumor growth was assessed by caliper. The two diameters were recorded and the tumor weight was calculated according to the following formula: length (mm)×width^2/2. […] This delay (T−C value) was defined as the difference of time (in days) required for the treatment group (T) and the control group (C) tumors to reach a predetermined size (1 g). Toxicity was evaluated on the basis of body weight reduction and animal survival rate.

[7] = tested on: ovarian cancer patients with confirmed BRCA-1 mutations; conditions: phase I, monotherapy, preliminary data; cited from earlier work
[8] = temozolomide alone 50 mg/kg oral, days 3-8

Chain of PARP-2 (Q9UGN5 whole entry): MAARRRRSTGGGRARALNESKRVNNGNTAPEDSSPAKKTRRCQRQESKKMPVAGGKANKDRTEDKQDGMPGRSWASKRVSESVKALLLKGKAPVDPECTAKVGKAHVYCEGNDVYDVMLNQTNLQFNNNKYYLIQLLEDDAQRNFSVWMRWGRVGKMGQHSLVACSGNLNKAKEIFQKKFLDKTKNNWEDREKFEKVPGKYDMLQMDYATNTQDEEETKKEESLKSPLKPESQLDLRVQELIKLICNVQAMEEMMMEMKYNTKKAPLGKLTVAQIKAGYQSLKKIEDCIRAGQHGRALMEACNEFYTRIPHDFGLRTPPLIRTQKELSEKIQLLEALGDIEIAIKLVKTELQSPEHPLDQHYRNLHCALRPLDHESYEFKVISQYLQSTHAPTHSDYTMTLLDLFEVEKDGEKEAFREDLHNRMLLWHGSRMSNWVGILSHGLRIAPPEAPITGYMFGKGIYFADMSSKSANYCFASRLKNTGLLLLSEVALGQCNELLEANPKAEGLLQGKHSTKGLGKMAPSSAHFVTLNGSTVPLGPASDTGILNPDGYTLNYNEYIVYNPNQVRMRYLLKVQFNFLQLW
Chain of PARP-3 (Q9Y6F1 whole entry): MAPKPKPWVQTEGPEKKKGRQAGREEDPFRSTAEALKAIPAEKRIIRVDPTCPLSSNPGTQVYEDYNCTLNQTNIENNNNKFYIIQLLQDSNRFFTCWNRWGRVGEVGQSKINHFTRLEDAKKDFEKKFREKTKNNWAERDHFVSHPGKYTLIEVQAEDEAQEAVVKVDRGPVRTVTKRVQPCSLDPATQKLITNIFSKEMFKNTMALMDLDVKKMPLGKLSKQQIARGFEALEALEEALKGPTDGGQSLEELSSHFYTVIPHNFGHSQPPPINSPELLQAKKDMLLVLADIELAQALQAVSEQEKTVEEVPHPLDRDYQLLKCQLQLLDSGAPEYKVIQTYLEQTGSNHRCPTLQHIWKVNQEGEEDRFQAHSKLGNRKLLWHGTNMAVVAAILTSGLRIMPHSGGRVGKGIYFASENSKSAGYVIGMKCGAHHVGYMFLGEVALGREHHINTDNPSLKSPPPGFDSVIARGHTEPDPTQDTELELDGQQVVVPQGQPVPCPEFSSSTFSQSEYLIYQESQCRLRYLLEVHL

| SMILES | DC50 [1] [µM] | DC50 [2] [µM] | Kd [1] [µM] | further results |
| --- | --- | --- | --- | --- |
| Cn1c2cccc(C(N)=O)c2c(=O)n1C1CCN(C2CCCC2)CC1 [Compound 7, 2-(1-cyclopentylpiperidin-4-yl)-1-methyl-3-oxo-2,3-dihydro-1H-indazole-4-carboxamide] | < 0.25 | 2.58 | 0.05 |  |
| Cn1c2cccc(C(N)=O)c2c(=O)n1C1CCNCC1 [Compound 9, 1-methyl-3-oxo-2-(piperidin-4-yl)-2,3-dihydro-1H-indazole-4-carboxamide] | < 0.25 | 0.45 | 0.14 | IC50 [4]: 0.05 µM; DC50 [3]: < 0.25 µM; Kd [3]: 0.014 µM |
| NC(=O)c1cccc2[nH]n(C3CCN(C4CCCCC4)CC3)c(=O)c12 [Compound 3, 2-(1-cyclohexylpiperidin-4-yl)-3-oxo-2,3-dihydro-1H-indazole-4-carboxamide] | > 10 | > 10 |  | clearance [5]: 17.8 mL/min/kg; Vd [5]: 1.3 L/kg; AUC [5]: 14.3 µM·h; half-life [5]: 106 min; C-max (oral) [5]: 5.6 µM; F on AUC [5]: 67%; T-C (days) ([6]; cpd 3 200 mg/kg oral days 1-12 + temozolomide 50 mg/kg oral days 3-8, time to reach 1 g): superior |
| O=C(c1cc(Cc2n[nH]c(=O)c3ccccc23)ccc1F)N1CCN(C(=O)C2CC2)CC1 [Olaparib] |  |  |  | partial responses [7]: 4 out of 10 |
| NC(=O)c1cccc2[nH]n(C3CCN(C4CCC(F)(F)CC4)CC3)c(=O)c12 [Compound 4, 2-[1-(4,4-difluorocyclohexyl)piperidin-4-yl]-3-oxo-2,3-dihydro-1H-indazole-4-carboxamide] | > 10 | > 10 |  |  |
| Cn1c2cc(F)cc(C(N)=O)c2c(=O)n1C1CCNCC1 [Compound 21, 6-fluoro-1-methyl-3-oxo-2-(piperidin-4-yl)-2,3-dihydro-1H-indazole-4-carboxamide] | < 0.25 | 0.22 | 0.07 | DC50 [3]: < 0.25 µM; Kd [3]: < 0.01 µM; Kd [2]: 0.04 µM |
| Cn1nnc2c(C(N)=O)ncn2c1=O [temozolomide] |  |  |  | BWL (%) [6, 8]: 2%; Max TGI (%) [6, 8]: 13%; Toxicity ([6]; temozolomide alone 50 mg/kg oral, days 3-8, seven animals per group): 0/7; T-C ([6]; temozolomide alone 50 mg/kg oral, days 3-8, time to reach 1 g): 1 days |
| CN1CCC(n2[nH]c3cccc(C(N)=O)c3c2=O)CC1 [Compound 8, 2-(1-methylpiperidin-4yl)-3-oxo-2,3-dihydro-1H-indazole-4-carboxamide] | < 0.25 | 2.75 | 0.04 | IC50 [4]: 0.6 µM; DC50 [3]: < 0.25 µM; Kd [3]: 0.14 µM |
| Cn1c2cccc(C(N)=O)c2c(=O)n1C1CCN(CC2CC=CCC2)CC1 (stereo not drawn) [Compound 65, 2-[1-(cyclohex-3-en-1-ylmethyl)piperidin-4-yl]-1-methyl-3-oxo-2,3-dihydro-1H-indazole-4-carboxamide] | 4.19 | 1.78 |  | clearance [5]: 53.8 mL/min/kg; Vd [5]: 3.4 L/kg; AUC [5]: 4.06 µM·h; half-life [5]: 69.6 min; C-max (oral) [5]: 1.93 µM; F on AUC [5]: 50% |
| Cn1c2cccc(C(N)=O)c2c(=O)n1C1CCN(Cc2cccs2)CC1 [Compound 63, 1-methyl-3-oxo-2-[1-(thiophen-2-ylmethyl)piperidin-4-yl]-2,3-dihydro-1H-indazole-4-carboxamide] | 3.56 | 1.42 |  |  |
| Cn1c2cccc(C(N)=O)c2c(=O)n1C1CCN(C2CCC2)CC1 [Compound 18, 2-(1-cyclobutylpiperidin-4-yl)-1-methyl-3-oxo-2,3-dihydro-1H-indazole-4-carboxamide] | < 0.25 | 2.88 |  |  |
| NC(=O)c1cccc2[nH]n(C3CCN(CC4CC=CCC4)CC3)c(=O)c12 (stereo not drawn) [Compound 64, 2-[1-(cyclohex-3-en-1-ylmethyl)piperidin-4-yl]-3-oxo-2,3-dihydro-1H-indazole-4-carboxamide] | > 10 | > 10 |  |  |
| NC(=O)c1cccc2[nH]n(C3CCN(C4CCCC4)CC3)c(=O)c12 [Compound 2, 2-(1-cyclopentylpiperidin-4-yl)-3-oxo-2,3-dihydro-1H-indazole-4-carboxamide] | 2 | > 10 | 1.49 |  |
| NC(=O)c1cccc2[nH]n(C3CCNCC3)c(=O)c12 [Compound 1, 3-oxo-2-(piperidin-4-yl)-2,3-dihydro-1H-indazole-4-carboxamide] | 1.5 | 0.58 | 0.78 | DC50 [3]: < 0.25 µM; Kd [3]: 0.08 µM |
| NC(=O)c1cc(F)cc2[nH]n(C3CCN(C4CCCCC4)CC3)c(=O)c12 [Compound 23, 2-(1-cyclohexylpiperidin-4-yl)-6-fluoro-3-oxo-2,3-dihydro-1H-indazole-4-carboxamide] | 5.94 | > 10 | 5 |  |

Continued, in another order:

| DC50 [1] [µM] | DC50 [2] [µM] | Kd [1] [µM] | SMILES | further results |
| --- | --- | --- | --- | --- |
| > 10 | 0.58 |  | NC(=O)c1cccc2[nH]n(C3CCN(Cc4ccco4)CC3)c(=O)c12 [Compound 66, 2-[1-(furan-2-ylmethyl)piperidin-4-yl]-3-oxo-2,3-dihydro-1H-indazole-4-carboxamide] |  |
| 2.29 | 2.56 |  | Cn1c2cccc(C(N)=O)c2c(=O)n1C1CCN(Cc2ccco2)CC1 [Compound 67, 2-[1-(furan-2-ylmethyl)piperidin-4-yl]-1-methyl-3-oxo-2,3-dihydro-1H-indazole-4-carboxamide] |  |
| 0.5 | 0.25 | 0.3 | NC(=O)c1cc(F)cc2[nH]n(C3CCNCC3)c(=O)c12 [Compound 20, 6-fluoro-3-oxo-2-(piperidin-4-yl)-2,3-dihydro-1H-indazole-4-carboxamide] | DC50 [3]: < 0.25 µM; Kd [3]: < 0.01 µM; Kd [2]: 0.05 µM |
| < 0.25 | > 10 | 0.03 | CC(C)N1CCC(n2c(=O)c3c(C(N)=O)cccc3n2C)CC1 [Compound 14, 1-methyl-3-oxo-2-[1-(propan-2-yl)piperidin-4-yl]-2,3-dihydro-1H-indazole-4-carboxamide] |  |
| 0.79 | 0.7 | 0.5 | Cn1c2cc(F)cc(C(N)=O)c2c(=O)n1C1CCN(C2CCCCC2)CC1 [Compound 22, 2-(1-cyclohexylpiperidin-4-yl)-6-fluoro-1-methyl-3-oxo-2,3-dihydro-1H-indazole-4-carboxamide] | clearance [5]: 38.7 mL/min/kg; Vd [5]: 6.4 L/kg; AUC [5]: 12.8 µM·h; half-life [5]: 135 min; C-max (oral) [5]: 4.72 µM; F on AUC [5]: 150%; Kd [2]: 0.27 µM |
| 2.57 | > 10 |  | NC(=O)c1cccc2[nH]n(C3CCN(C4CCC4)CC3)c(=O)c12 [Compound 16, 2-(1-cyclobutylpiperidin-4-yl)-3-oxo-2,3-dihydro-1H-indazole-4-carboxamide] |  |
| 0.91 | 2.15 | 0.54 | Cn1c2cccc(C(N)=O)c2c(=O)n1C1CCN(C2CCCCC2)CC1 [Compound 5, 2-(1-cyclohexylpiperidin-4-yl)-1-methyl-3-oxo-2,3-dihydro-1H-indazole-4-carboxamide] | clearance [5]: 41 mL/min/kg; Vd [5]: 4.3 L/kg; AUC [5]: 10.6 µM·h; half-life [5]: 113 min; C-max (oral) [5]: 4.77 µM; F on AUC [5]: 109% |
| > 10 | > 10 |  | NC(=O)c1cccc2[nH]n(C3CCN(CC4CCCCC4)CC3)c(=O)c12 [Compound 31, 2-[1-(cyclohexylmethyl)piperidin-4-yl]-3-oxo-2,3-dihydro-1H-indazole-4-carboxamide] |  |
| 3.95 | 2.34 | 1.88 | Cn1c2cccc(C(N)=O)c2c(=O)n1C1CCN(C2CCC(F)(F)CC2)CC1 [Compound 6, 2-[1-(4,4-difluorocyclohexyl)piperidin-4-yl]-1-methyl-3-oxo-2,3-dihydro-1H-indazole-4-carboxamide] | IC50 [4]: 0.1 µM; DC50 [3]: < 0.25 µM; Kd [3]: < 0.01 µM; clearance [5]: 52.7 mL/min/kg; Vd [5]: 2.9 L/kg; AUC [5]: 3.87 µM·h; half-life [5]: 67.8 min; C-max (oral) [5]: 3.07 µM; F on AUC [5]: 49% |
| > 10 | 0.46 |  | NC(=O)c1cccc2[nH]n(C3CCN(Cc4cccs4)CC3)c(=O)c12 [Compound 62, 3-oxo-2-[1-(thiophen-2-ylmethyl)piperidin-4-yl]-2,3-dihydro-1H-indazole-4-carboxamide] | IC50 [4]: 0.07 µM; DC50 [3]: < 0.25 µM; Kd [3]: 0.022 µM |
| > 10 | 2.9 |  | Cn1c2cccc(C(N)=O)c2c(=O)n1C1CCN(CC2CCCCC2)CC1 [Compound 33, 2-[1-(cyclohexylmethyl)piperidin-4-yl]-1-methyl-3-oxo-2,3-dihydro-1H-indazole-4-carboxamide] |  |
